According to the NIST ThermoML archive (doi:10.1021/acs.jced.5b00105):
± gives the expanded uncertainty stated by the source.

Columns and labels:
[1] = refractive index (Na D-line) (dimensionless); conditions: 100 kPa, Liquid
[2] = for surface tension liquid-gas: Drop volume; for viscosity / mass density: 100 kPa, Liquid; for viscosity: Concentric cylinders viscometry; for mass density: Vibrating tube method
[3] = refractive index (Na D-line) (dimensionless); xn = mol fraction of the nth substance listed; conditions: 100 kPa, Liquid, x2 = 0
[4] = xn = mol fraction of the nth substance listed; conditions: x2 = 0; for surface tension liquid-gas: Drop volume; for viscosity / mass density: 100 kPa, Liquid; for viscosity: Concentric cylinders viscometry; for mass density: Vibrating tube method

CC(C)CC(C)(C)C [2,2,4-trimethylpentane]
Conditions | mass density, [2] [kg/m3] | refractive index, [1] | surface tension liquid-gas, [2] [mN/m] | viscosity, [2] [mPa·s]
293.15 K | 691.91 ± 0.19 | 1.3921 ± 0.0015 | 18.94 ± 0.24 | 0.518 ± 0.083
298.15 K | 687.82 ± 0.19 | 1.3886 ± 0.0015 | 18.39 ± 0.24 | 0.493 ± 0.079
303.15 K | 683.68 ± 0.19 | 1.3876 ± 0.0015 | 17.99 ± 0.24 | 0.47 ± 0.075
308.15 K | 679.51 ± 0.19 | 1.3848 ± 0.0015 | 17.58 ± 0.23 | 0.449 ± 0.072
313.15 K | 675.32 ± 0.19 | 1.3833 ± 0.0015 | – | 0.43 ± 0.069
318.15 K | 671.05 ± 0.19 | 1.3785 ± 0.0015 | – | 0.414 ± 0.066
323.15 K | 666.8 ± 0.2 | 1.376 ± 0.0015 | – | 0.398 ± 0.064
333.15 K | 658.2 ± 0.2 | – | – | 0.371 ± 0.06
343.15 K | 649.44 ± 0.2 | – | – | 0.348 ± 0.056

CC(C)CC(C)(C)C [2,2,4-trimethylpentane] + CC1CCCCC1
Conditions | mass density, [4] [kg/m3] | refractive index, [3] | surface tension liquid-gas, [4] [mN/m] | viscosity, [4] [mPa·s]
293.15 K | 691.91 ± 0.19 | 1.3921 ± 0.0015 | 18.94 ± 0.24 | 0.518 ± 0.083
298.15 K | 687.82 ± 0.19 | 1.3886 ± 0.0015 | 18.39 ± 0.24 | 0.493 ± 0.079
303.15 K | 683.68 ± 0.19 | 1.3876 ± 0.0015 | 17.99 ± 0.24 | 0.47 ± 0.075
308.15 K | 679.51 ± 0.19 | 1.3848 ± 0.0015 | 17.58 ± 0.23 | 0.449 ± 0.072
313.15 K | 675.32 ± 0.19 | 1.3833 ± 0.0015 | – | 0.43 ± 0.069
318.15 K | 671.05 ± 0.19 | 1.3785 ± 0.0015 | – | 0.414 ± 0.066
323.15 K | 666.8 ± 0.2 | 1.376 ± 0.0015 | – | 0.398 ± 0.064
333.15 K | 658.2 ± 0.2 | – | – | 0.371 ± 0.06
343.15 K | 649.44 ± 0.2 | – | – | 0.348 ± 0.056

CC(C)CC(C)(C)C [2,2,4-trimethylpentane] + CCC1CCCCC1
Conditions | mass density, [4] [kg/m3] | refractive index, [3] | surface tension liquid-gas, [4] [mN/m] | viscosity, [4] [mPa·s]
293.15 K | 691.91 ± 0.19 | 1.3921 ± 0.0015 | 18.94 ± 0.24 | 0.518 ± 0.083
298.15 K | 687.82 ± 0.19 | 1.3886 ± 0.0015 | 18.39 ± 0.24 | 0.493 ± 0.079
303.15 K | 683.68 ± 0.19 | 1.3876 ± 0.0015 | 17.99 ± 0.24 | 0.47 ± 0.075
308.15 K | 679.51 ± 0.19 | 1.3848 ± 0.0015 | 17.58 ± 0.23 | 0.449 ± 0.072
313.15 K | 675.32 ± 0.19 | 1.3833 ± 0.0015 | – | 0.43 ± 0.069
318.15 K | 671.05 ± 0.19 | 1.3785 ± 0.0015 | – | 0.414 ± 0.066
323.15 K | 666.8 ± 0.2 | 1.376 ± 0.0015 | – | 0.398 ± 0.064
333.15 K | 658.2 ± 0.2 | – | – | 0.371 ± 0.06
343.15 K | 649.44 ± 0.2 | – | – | 0.348 ± 0.056

CC(C)CC(C)(C)C [2,2,4-trimethylpentane] + CCCCC1CCCCC1
Conditions | mass density, [4] [kg/m3] | refractive index, [3] | surface tension liquid-gas, [4] [mN/m] | viscosity, [4] [mPa·s]
293.15 K | 691.91 ± 0.19 | 1.3921 ± 0.0015 | 18.94 ± 0.24 | 0.518 ± 0.083
298.15 K | 687.82 ± 0.19 | 1.3886 ± 0.0015 | 18.39 ± 0.24 | 0.493 ± 0.079
303.15 K | 683.68 ± 0.19 | 1.3876 ± 0.0015 | 17.99 ± 0.24 | 0.47 ± 0.075
308.15 K | 679.51 ± 0.19 | 1.3848 ± 0.0015 | 17.58 ± 0.23 | 0.449 ± 0.072
313.15 K | 675.32 ± 0.19 | 1.3833 ± 0.0015 | – | 0.43 ± 0.069
318.15 K | 671.05 ± 0.19 | 1.3785 ± 0.0015 | – | 0.414 ± 0.066
323.15 K | 666.8 ± 0.2 | 1.376 ± 0.0015 | – | 0.398 ± 0.064
333.15 K | 658.2 ± 0.2 | – | – | 0.371 ± 0.06
343.15 K | 649.44 ± 0.2 | – | – | 0.348 ± 0.056

CCCCC1CCCCC1 [butylcyclohexane]
Conditions | mass density, [2] [kg/m3] | refractive index, [1] | surface tension liquid-gas, [2] [mN/m] | viscosity, [2] [mPa·s]
293.15 K | 799.37 ± 0.15 | 1.4403 ± 0.0015 | 26.81 ± 0.25 | 1.304 ± 0.21
298.15 K | 795.63 ± 0.15 | 1.4377 ± 0.0015 | 25.87 ± 0.24 | 1.199 ± 0.19
303.15 K | 791.88 ± 0.15 | 1.4355 ± 0.0015 | 25.49 ± 0.24 | 1.109 ± 0.18
308.15 K | 788.12 ± 0.15 | 1.4333 ± 0.0015 | 24.73 ± 0.24 | 1.031 ± 0.17
313.15 K | 784.35 ± 0.15 | 1.4314 ± 0.0015 | – | 0.961 ± 0.15
318.15 K | 780.49 ± 0.15 | 1.429 ± 0.0015 | – | 0.9 ± 0.14
323.15 K | 776.7 ± 0.16 | 1.4268 ± 0.0015 | – | 0.844 ± 0.14
333.15 K | 769.09 ± 0.16 | – | – | 0.749 ± 0.12
343.15 K | 761.43 ± 0.16 | – | – | 0.671 ± 0.11

CCC1CCCCC1 [ethylcyclohexane]
Conditions | mass density, [2] [kg/m3] | refractive index, [1] | surface tension liquid-gas, [2] [mN/m] | viscosity, [2] [mPa·s]
293.15 K | 787.98 ± 0.15 | 1.4337 ± 0.0015 | 25.47 ± 0.24 | 0.848 ± 0.14
298.15 K | 783.97 ± 0.15 | 1.4301 ± 0.0015 | 24.76 ± 0.24 | 0.793 ± 0.13
303.15 K | 779.93 ± 0.15 | 1.4295 ± 0.0015 | 24.55 ± 0.24 | 0.745 ± 0.12
308.15 K | 775.88 ± 0.15 | 1.4278 ± 0.0015 | 23.74 ± 0.24 | 0.702 ± 0.11
313.15 K | 771.82 ± 0.15 | 1.4259 ± 0.0015 | – | 0.663 ± 0.11
318.15 K | 767.69 ± 0.15 | 1.4204 ± 0.0015 | – | 0.628 ± 0.1
323.15 K | 763.59 ± 0.15 | 1.4187 ± 0.0015 | – | 0.597 ± 0.096
333.15 K | 755.35 ± 0.15 | – | – | 0.541 ± 0.087
343.15 K | 747.03 ± 0.16 | – | – | 0.496 ± 0.08

CC1CCCCC1 [methylcyclohexane]
Conditions | mass density, [2] [kg/m3] | refractive index, [1] | surface tension liquid-gas, [2] [mN/m] | viscosity, [2] [mPa·s]
293.15 K | 769.35 ± 0.15 | 1.4232 ± 0.0015 | 23.87 ± 0.24 | 0.735 ± 0.12
298.15 K | 765.05 ± 0.15 | 1.4199 ± 0.0015 | 23.02 ± 0.24 | 0.692 ± 0.11
303.15 K | 760.71 ± 0.15 | 1.419 ± 0.0015 | 22.55 ± 0.24 | 0.651 ± 0.1
308.15 K | 756.37 ± 0.15 | 1.4168 ± 0.0015 | 22.12 ± 0.24 | 0.615 ± 0.099
313.15 K | 752 ± 0.16 | 1.415 ± 0.0015 | – | 0.58 ± 0.093
318.15 K | 747.58 ± 0.16 | 1.4102 ± 0.0015 | – | 0.549 ± 0.088
323.15 K | 743.17 ± 0.16 | 1.4078 ± 0.0015 | – | 0.522 ± 0.084
333.15 K | 734.29 ± 0.16 | – | – | 0.476 ± 0.076
343.15 K | 725.31 ± 0.16 | – | – | 0.439 ± 0.07
